Reference: US9018214B2, “Bicyclic heterocycle compounds and their uses in therapy” (Astex Therapeutics Limited, priority 2011, dated 2015)
pIC50: −log10 of the molar value. Structures can show the parent of a compound that is named as a salt. Where two headings read alike, the source gives them in different places. Each block holds one molecule with its values, some of them ahead of it.

How the values were obtained:
[1] = biological target: BIR3 domain of human cIAP-1 (residues 267-363) (Homo sapiens (Human), UniProt Q13490); assay: cIAP-1 in vitro competitive displacement binding assay (fluorescence polarization; Probe A AVPIK(5&6FAM)-amide or Probe B AbuRPFK(5&6FAM)-amide)
[2] = biological target: BIR3 domain of human XIAP (residues 252-350) (Homo sapiens (Human), UniProt P98170); assay: XIAP in vitro competitive displacement binding assay (fluorescence polarization); details: for pIC50: read-out: IC50 or PI Xiap: IC50
[3] = read-out: IC50 or PI cIAP1: IC50
[4] = Probe A AVPIK(5&6FAM)-amide, read-out: IC50 or PI cIAP1: IC50
[5] = 1 h, read-out: IC50 or PI Xiap: PI
[6] = 3 h, Probe A, read-out: IC50 or PI cIAP1: PI
[7] = Probe B AbuRPFK(5&6FAM)-amide, read-out: IC50 or PI cIAP1: IC50

SMILES: C[C@@H]1CN(CC(=O)N2CCc3ccccc32)CCN1 [Example 85, 1-(2,3-Dihydro-1H-indol-1-yl)-2-[(3R)-3-methylpiperazin-1-yl]ethan-1-one, hydrochloride salt]
- inhibition at 250 µM ([1]; 3 h, Probe A, @ 250 μM, read-out: IC50 or PI cIAP1: PI): 45%
- inhibition at 500 µM ([2]; 1 h, @ 500 μM, read-out: IC50 or PI Xiap: PI): 52%

SMILES: COC(=O)c1ccc2c(c1)N(C(=O)CN1CCN[C@H](C)C1)CC2 [Example 15, 1-[2-((R)-3-Methyl-piperazin-1-yl)-acetyl]-2,3-dihydro-1H-indole-6-carboxylic acid methyl ester]
- pIC50 [1]: > 5.00
- pIC50 [1, 3]: 5.17
- pIC50 [2]: 4.72

SMILES: CC(=O)N1CCC2(CC1)CN(C(=O)CN1CCN[C@H](C)C1)c1cc(Cl)ccc12 [Example 31, 1-{1′-Acetyl-6-chloro-1,2-dihydrospiro[indole-3,4′-piperidine]-1-yl}-2-[(3R)-3-methylpiperazin-1-yl]ethan-1-one hydrochloride salt]
- inhibition at 49 µM ([1]; 3 h, Probe A, @ 49 μM, read-out: IC50 or PI cIAP1: PI): 62%
- inhibition at 49 µM ([2]; 1 h, @ 49 μM, read-out: IC50 or PI Xiap: PI): 51%

SMILES: C[C@@H]1CN(CC(=O)N2CCc3cnccc32)CCN1 [Example 14, 1-(2,3-Dihydro-pyrrolo[3,2-c]pyridin-1-yl)-2-((R)-3-methyl-piperazin-1-yl)-ethanone]
- inhibition at 160 µM [1, 6]: 46%
- inhibition at 99 µM ([2]; 1 h, @ 99 μM, read-out: IC50 or PI Xiap: PI): 53%

SMILES: CNS(=O)(=O)c1cc2c(cc1Br)CCN2C(=O)CN1CCN[C@H](C)C1 [Example 25, 5-Bromo-1-[2-((R)-3-methyl-piperazin-1-yl)-acetyl]-2,3-dihydro-1H-indole-6-sulfonic acid methylamide hydrochloride salt]
- pIC50 [1, 4]: 4.22
- pIC50 [1, 7]: 4.21
- pIC50 [2]: 5.80

SMILES: C[C@@H]1CN(CC(=O)N2CCc3ccc(S(=O)(=O)c4ccccc4)cc32)CCN1 [Example 33, 1-(6-Benzene-sulfonyl-2,3-dihydro-indol-1-yl)-2-((R)-3-methyl-piperazin-1-yl)-ethanone hydrochloride salt]
- pIC50 [1]: > 5.00
- pIC50 [1, 4]: 5.42
- pIC50 [2]: 5.92

SMILES: COC[C@H]1CN[C@H](C)CN1CC(=O)N1CC(C)(C)c2cnc(N(C)c3ccccc3)cc21 [Example 84, 1-[3,3-Dimethyl-6-(methyl-phenyl-amino)-2,3-dihydro-pyrrolo[3,2-c]pyridin-1-yl]-2-((2R,5R)-2-methoxymethyl-5-methyl-piperazin-1-yl)-ethanone hydrochloride salt]
- pIC50 [1]: > 5.00
- pIC50 [1, 7]: 5.89
- pIC50 [2]: 5.06

SMILES: C[C@@H]1CN(CC(=O)N2CCc3cc(Br)c(S(=O)(=O)N(C)C)cc32)CCN1 [Example 26, 5-Bromo-1-[2-((R)-3-methyl-piperazin-1-yl)-acetyl]-2,3-dihydro-1H-indole-6-sulfonic acid dimethylamide hydrochloride salt]
- pIC50 [1, 4]: 4.57
- pIC50 [2]: 5.62

SMILES: CCS(=O)(=O)c1cc2c(cc1F)C(C)(C)CN2C(=O)CN1CCN[C@H](C)C1 [Example 51, 1-(6-Ethanesulfonyl-5-fluoro-3,3-dimethyl-2,3-dihydro-indol-1-yl)-2-((R)-3-methyl-piperazin-1-yl)-ethanone dihydrochloride salt]
- pIC50 [1, 3]: 5.49
- pIC50 [2]: 5.96

SMILES: C[C@@H]1CN(CC(=O)N2CC3(CCN(C(=O)OCc4ccccc4)CC3)c3ccc(Cl)cc32)CCN1 [Example 23, Benzyl 6-chloro-1-{2-[(3R)-3-methyl-piperazin-1-yl]acetyl}-1,2-dihydro-spiro[indole-3,4′-piperidine]-1′-carboxylate hydrochloride salt]
- pIC50 [1, 4]: 4.96
- pIC50 [2]: 4.74

SMILES: COC[C@H]1CN[C@H](C)CN1CC(=O)N1CC(C)(C)c2cnc(-c3cnn(C)c3)cc21 [Example 124, 1-[3,3-Dimethyl-6-(1-methyl-1H-pyrazol-4-yl)-1H,2H,3H-pyrrolo[3,2-c]pyridin-1-yl]-2-[(2R,5R)-2-(methoxymethyl)-5-methylpiperazin-1-yl]ethan-1-one dihydrochloride]
- pIC50 [1, 3]: 6.26
- pIC50 [2]: 5.40

SMILES: COC[C@H]1CN[C@H](C)CN1CC(=O)N1CC(C)(C)c2cnc(C(C)(F)F)cc21 [Example 181, 1-[6-(1,1-Difluoroethyl)-3,3-dimethyl-1H,2H,3H-pyrrolo[3,2-c]pyridin-1-yl]-2-[(2R,5R)-2-(methoxymethyl)-5-methylpiperazin-1-yl]ethan-1-one dihydrochloride]
- pIC50 [1]: > 6.00
- pIC50 [1, 3]: 6.60
- pIC50 [2]: 6.48

SMILES: C[C@@H]1CN(CC(=O)N2CCc3ccc(NS(C)(=O)=O)cc32)CCN1 [Example 8, N-{1-[2-((R)-3-Methyl-piperazin-1-yl)-acetyl]-2,3-dihydro-1H-indol-6-yl}-methane-sulfonamide]
- inhibition at 160 µM [1, 6]: 46%
- inhibition at 160 µM [2, 5]: 59%

Other lines, results leading:

- pIC50 [1, 4]: 4.57
- inhibition at 160 µM [2, 5]: 45%
SMILES: C[C@@H]1CN(CC(=O)N2CC(C)(C)c3ccccc32)CCN1 [Example 21, 1-(3,3-Dimethyl-2,3-dihydro-indol-1-yl)-2-((R)-3-methyl-piperazin-1-yl)-ethanone]

- inhibition at 160 µM [1, 6]: 44%
- pIC50 [2]: 3.96
SMILES: C[C@@H]1CN(CC(=O)N2CCc3ccc(C(=O)N(C)C)cc32)CCN1 [Example 17, 1-[2-((R)-3-Methyl-piperazin-1-yl)-acetyl]-2,3-dihydro-1H-indole-6-carboxylic acid dimethylamide]

- pIC50 [1, 7]: 6.49
- pIC50 [2]: 6.04
SMILES: COC[C@H]1CN[C@H](C)CN1CC(=O)N1C[C@@](C)(COC)c2ccc(Br)cc21 [Example 169, 1-[(3S)-6-Bromo-3-(methoxymethyl)-3-methyl-2,3-dihydro-1H-indol-1-yl]-2-[(2R,5R)-2-(methoxymethyl)-5-methylpiperazin-1-yl]ethan-1-one hydrochloride]

- pIC50 [1, 7]: 6.15
- pIC50 [2]: 6.10
SMILES: COC[C@H]1CN[C@H](C)CN1CC(=O)N1CC(C)(C)c2ccc(C#N)cc21 [Example 117, 1-{2-[(2R,5R)-2-(Methoxymethyl)-5-methylpiperazin-1-yl]acetyl}-3,3-dimethyl-2,3-dihydro-1H-indole-6-carbonitrile hydrochloride]

- pIC50 [1, 7]: 5.89
- pIC50 [2]: 5.22
SMILES: COC[C@H]1CN[C@H](C)CN1CC(=O)N1CC(C)(C)c2cc(OC)ncc21 [Example 65, 1-(5-Methoxy-3,3-dimethyl-2,3-dihydro-pyrrolo[2,3-c]pyridin-1-yl)-2-((2R,5R)-2-methoxymethyl-5-methyl-piperazin-1-yl)-ethanone hydrochloride salt]

- pIC50 [1, 7]: 6.14
- pIC50 [2]: 4.54
SMILES: COC[C@H]1CN[C@H](C)CN1CC(=O)N1CC(C)(C)c2ccc(CN3CCCC3=O)cc21 [Example 125, 1-[(1-{2-[(2R,5R)-2-(Methoxymethyl)-5-methylpiperazin-1-yl]acetyl}-3,3-dimethyl-2,3-dihydro-1H-indol-6-yl)methyl]pyrrolidin-2-one hydrochloride]

- pIC50 [1, 7]: 6.28
- pIC50 [2]: 5.89
SMILES: CCC1(C)CN(C(=O)CN2C[C@@H](C)NC[C@@H]2COC)c2cc(Cl)ccc21 (stereo partly drawn) [Example 123, 1-(6-Chloro-3-ethyl-3-methyl-2,3-dihydro-1H-indol-1-yl)-2-[(2R,5R)-2-(methoxymethyl)-5-methylpiperazin-1-yl]ethan-1-one hydrochloride]

- inhibition at 100 µM ([1]; 3 h, Probe B, read-out: IC50 or PI cIAP1: PI): 36%
- inhibition at 300 µM ([2]; 1 h, @ 300 μM, read-out: IC50 or PI Xiap: PI): 51%
SMILES: COC[C@H]1CN[C@H](C)CN1CC(=O)N1CC(C)(C)c2cnc(Nc3ccccc3)cc21 [Example 81, 1-(3,3-Dimethyl-6-phenylamino-2,3-dihydro-pyrrolo[3,2-c]pyridin-1-yl)-2-((2R,5R)-2-methoxymethyl-5-methyl-piperazin-1-yl)-ethanone hydrochloride salt]

- pIC50 [1, 7]: 5.10
- pIC50 [2]: 5.26
SMILES: C[C@@H]1CN(CC(=O)N2CC(C)(C)c3ccc(C#N)cc32)CCN1 [Example 162, 3,3-Dimethyl-1-{2-[(3R)-3-methylpiperazin-1-yl]acetyl}-2,3-dihydro-1H-indole-6-carbonitrile]

- inhibition at 3 µM ([1]; 3 h, Probe B, @ 3 μM, read-out: IC50 or PI cIAP1: PI): 53%
- inhibition at 10 µM ([2]; 1 h, @ 10 μM, read-out: IC50 or PI Xiap: PI): 44%
SMILES: COC[C@H]1CN[C@H](C)CN1CC(=O)N1CC(C)(C)c2cc(=O)n(C)cc21 [Example 66, 1-[2-((2R,5R)-2-Methoxymethyl-5-methyl-piperazin-1-yl)-acetyl]-3,3,6-trimethyl-1,2,3,6-tetrahydro-pyrrolo[2,3-c]pyridin-5-one hydrochloride salt]

- pIC50 [1, 7]: 5.01
- pIC50 [2]: 5.01
SMILES: C[C@@H]1CN(CC(=O)N2CC3(CC3)c3ccc(Cl)cc32)CCN1 [Example 53, 1-{6′-Chloro-1′,2′-dihydrospiro[cyclopropane-1,3′-indole]-1′-yl}-2-[(3R)-3-methyl-piperazin-1-yl]ethan-1-one hydrochloride salt]

- inhibition at 100 µM [1, 6]: 46%
- inhibition at 100 µM ([2]; 1 h, @ 100 μM, read-out: IC50 or PI Xiap: PI): 59%
SMILES: C[C@@H]1CN(CC(=O)N2CCc3cc(Br)ccc32)CCN1 [Example 11, 1-(5-Bromo-2,3-dihydro-indol-1-yl)-2-((R)-3-methyl-piperazin-1-yl)-ethanone]

- pIC50 [1, 4]: 3.77
- pIC50 [2]: 3.89
SMILES: C[C@@H]1CN(CC(=O)N2CCc3cc(F)ccc32)CCN1 [Example 9, 1-(5-Fluoro-2,3-dihydro-indol-1-yl)-2-((R)-3-methyl-piperazin-1-yl)-ethanone]

- pIC50 [1, 7]: 4.51
- pIC50 [2]: 5.25
SMILES: C[C@@H]1CN([C@@H](C)C(=O)N2CC(C)(C)c3ccc(C#N)cc32)CCN1 [Example 196, 3,3-Dimethyl-1-[(2S)-2-[(3R)-3-methylpiperazin-1-yl]propanoyl]-2,3-dihydro-1H-indole-6-carbonitrile hydrochloride]
